The results in this text go back to patent US9695155B2, “Herbicidal substituted pyrimidinyloxy benzene compounds” (E. I. DU PONT DE NEMOURS AND COMPANY, priority 2013, dated 2017).

In assay [1] the test system is ragweed. Kind of assay: Test E postemergence. It is filed as in vivo, Ambrosia elatior. The source says:
Seeds of plant species selected from corn (Zea mays), soybean (Glycine max), velvetleaf (Abutilon theophrasti), lambsquarters (Chenopodium album), wild poinsettia (Euphorbia heterophylla), palmer pigweed (Amaranthus palmeri), waterhemp (common waterhemp, Amaranthus rudis), surinam grass (Brachiaria decumbens), large (Lg) crabgrass (Digitaria sanguinalis), Brazilian crabgrass (Digitaria horizontalis), fall panicum (Panicum dichotomiflorum), giant foxtail (Setaria faberii), green foxtail (Setaria viridis), goosegrass (Eleusine indica), johnsongrass (Sorghum halepense), ragweed (common ragweed, Ambrosia elatior), barnyardgrass (Echinochloa crus-galli), sandbur (southern sandbur, Cenchrus echinatus), arrowleaf sida (Sida rhombifolia), Italian ryegrass (Lolium multiflorum), dayflower (Virginia (VA) dayflower, Commelina virginica), field bindweed (Convolvulus arvensis), morningglory (Ipomoea coccinea), nightshade (eastern black nightshade, Solanum ptycanthum), kochia (Kochia scoparia), yellow nutsedge (Cyperus esculentus), cocklebur (common cocklebur, Xanthium strumarium), smartweed (ladysthumb smartweed, and hairy beggarticks (Bidens pilosa), were planted into a silt loam soil and treated preemergence with test chemicals formulated in a non-phytotoxic solvent mixture which included a surfactant.
At the same time, plants from these crop and weed species and also horseweed (Canada horseweed, Conyza canadensis), waterhemp_RES1, (ALS & Triazine resistant common waterhemp, Amaranthus rudis), and waterhemp_RES2, (ALS & HPPD resistant common waterhemp, Amaranthus rudis) were planted in pots containing Redi-Earth® planting medium (Scotts Company, 14111 Scottslawn Road, Marysville, Ohio 43041) comprising spaghnum peat moss, vermiculite, wetting agent and starter nutrients were treated with postemergence applications of test chemicals formulated in the same manner. Plants ranged in height from 2 to 18 cm for postemergence treatments (1- to 4-leaf stage). Treated plants and controls were maintained in a greenhouse for 14 to 21 days, after which time all species were compared to controls and visually evaluated. Plant response ratings, summarized in Table E, are based on a scale of 0 to 100 where 0 is no effect and 100 is complete control. A dash (-) response means no test result.

For another assay, the system named is lambsquarters. The assay can be described thus: Test D preemergence. It is filed as in vivo, Chenopodium album. Particulars: Chenopodium album, pre-emergence. The essentials:
(§1)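 Plant response is a visual score from 0 (no effect) to 100 (complete control) relative to controls. Plants were kept in a controlled growth environment for 7 to 21 days after spraying. Preemergence treatments went onto silt loam soil; postemergence ones onto 1- to 4-leaf seedlings.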

The subject of a further assay is chickweed. The assay can be described thus: Test D postemergence. The format is in vivo, Stellaria media. To be noted: Stellaria media, post-emergence. The source says: (§2) Seeds of plant species selected from bluegrass (annual bluegrass, Poa annua), blackgrass (Alopecurus myosuroides), canarygrass (littleseed canarygrass, Phalaris minor), chickweed (common chickweed, Stellaria media), galium (catchweed bedstraw, Galium aparine), bromegrass, downy (downy bromegrass, Bromus tectorum), field poppy (Papaver rhoeas), field violet (Viola arvensis), green foxtail (Setaria viridis), deadnettle (henbit deadnettle, Lamium amplexicaule), Italian ryegrass (Lolium multiflorum), kochia (Kochia scoparia), lambsquarters (Chenopodium album), oilseed rape (Brassica napus), pigweed (Amaranthus retroflexus), chamomile (scentless chamomile, Matricaria inodora), Russian thistle (Salsola kali), speedwell (bird's-eye speedwell, Veronica persica), spring barley (Hordeum vulgare), spring wheat (Triticum aestivum), wild buckwheat (Polygonum convolvulus), wild mustard (Sinapis arvensis), wild oat (Avena fatua), wild radish (Raphanus raphanistrum), windgrass (Apera spica-venti), winter barley (Hordeum vulgare), and winter wheat (Triticum aestivum) were planted into a silt loam soil and treated preemergence with test chemicals formulated in a non-phytotoxic solvent mixture which included a surfactant.
(§3) At the same time, these species were planted in pots containing Redi-Earth® planting medium (Scotts Company, 14111 Scottslawn Road, Marysville, Ohio 43041) comprising spaghnum peat moss, vermiculite, wetting agent and starter nutrients and treated with postemergence applications of the test chemicals formulated in the same manner. Plants ranged in height from 2 to 18 cm (1- to 4-leaf stage). Treated plants and controls were maintained in a controlled growth environment for 7 to 21 days after which time all species were compared to controls and visually evaluated. Plant response ratings, summarized in Table D, are based on a scale of 0 to 100 where 0 is no effect and 100 is complete control. A dash (-) response means no test result.

The test system of a further assay is field violet. Kind of assay: Test D postemergence. It is filed as in vivo, Viola arvensis. Particulars: Viola arvensis, post-emergence, scale 0 to 100 (0 no effect, 100 complete control), read-out: Plant response rating, Field Violet. The essentials: as §1
In another assay the test system is kochia. Kind of assay: Test D postemergence. The format is in vivo, Kochia scoparia. To be noted: Bassia scoparia, post-emergence. The essentials: as §1
A further assay concerns oilseed rape. Kind of assay: Test D postemergence. It is filed as in vivo, Brassica napus. Particulars: Brassica napus, post-emergence. The essentials:
as §1

The next assay relates to pigweed. The assay can be described thus: Test D postemergence. The format is in vivo, Amaranthus retroflexus. To be noted: Amaranthus retroflexus, post-emergence.
Text: as §2, §3

Assay [2] has as its system ragweed. Kind of assay: Test F preemergence. To be noted: 21 days, scale 0 to 100. It is filed as in vivo, Ambrosia elatior. The source says: Seeds of plant species selected from bermudagrass (Cynodon dactylon), surinam grass (Brachiaria decumbens), large (Lg) crabgrass (Digitaria sanguinalis), crabgrass, naked (naked crabgrass, Digitaria nuda), foxtail, green (green foxtail, Setaria viridis), johnsongrass (Sorghum halepense), kochia (Kochia scoparia), morningglory (pitted morningglory, Ipomoea lacunosa), nutsedge, purple (purple nutsedge, Cyperus rotundus), ragweed (common ragweed, Ambrosia elatior), mustard, black (black mustard, Brassica nigra), guineagrass (Panicum maximum), dallisgrass (Paspalum dilatatum), barnyardgrass (Echinochloa crus-galli), sandbur (southern sandbur, Cenchrus echinatus), sowthistle (common sowthistle, Sonchus oleraceous), Italian ryegrass (Lolium multiflorum), signalgrass (broadleaf signalgrass, Brachiaria platyphylla), dayflower (Virginia (VA) dayflower, Commelina virginica), bluegrass (annual bluegrass, Poa annua), quackgrass (Elytrigia repens), mallow (common mallow, Malva sylvestris), buckwheat, wild (wild buckwheat, Polygonum convolvulus), leafy spurge (Euphorbia esula), chickweed (common chickweed, Stellaria media), wild poinsettia (Euphorbia heterophylla), and pigweed (Amaranthus retroflexus) were planted into a blend of loam soil and sand and treated preemergence with test chemicals formulated in a non-phytotoxic solvent mixture which included a surfactant.
Treated plants and controls were maintained in a greenhouse for 21 days, after which time all species were compared to controls and visually evaluated. Plant response ratings, summarized in Table F, are based on a scale of 0 to 100 where 0 is no effect and 100 is complete control. A dash (-) response means no test result.

Another assay has as its system leafy spurge. Kind of assay: Test F preemergence. It is filed as in vivo, Euphorbia esula. To be noted: 21 days, scale 0 to 100. The essentials: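 Visual ratings from 0 (no effect) to 100 (complete control), scored against untreated controls after 21 days in the greenhouse. Test chemicals, formulated in a non-phytotoxic solvent blend with surfactant, were applied preemergence to seeds planted in loam soil mixed with sand.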

Regarding `Clc1cnc(Oc2cccc(Cl)c2-n2cc(I)cn2)nc1` [Compound 181], the “Plant response rating, Ragweed” value stood at 25 with ragweed [1] (Postemergence, 31 g ai/ha, scale 0 to 100); 30 in the assay on ragweed [1] (Postemergence, 62 g ai/ha, scale 0 to 100); 50 with ragweed [1] (Postemergence, 125 g ai/ha, scale 0 to 100); 20 with ragweed [1] (postemergence, 16 g ai/ha, scale 0 to 100, 0 no effect, 100 complete control).
On to `N#Cc1cccc(Oc2ncc(Cl)cn2)c1-n1cc(OCC(F)(F)F)cn1` [Compound 274, 3-[(5-chloro-2-pyrimidinyl)oxy]-2-[4-(2,2,2-trifluoroethoxy)-1H-pyrazol-1-yl]benzonitrile], for which the pest or weed control at 16 g/ha with lambsquarters (16 g ai/ha, scale 0 (no effect) to 100 (complete control), read-out: Plant response rating, Lambsquarters) was 20%; in the assay on chickweed (16 g ai/ha, scale 0-100, read-out: Plant response rating, Chickweed), 65%; with kochia (16 g ai/ha, scale 0-100, read-out: Plant response rating, Kochia) it was 60%; in the assay on pigweed (16 g ai/ha, scale 0-100, read-out: Plant response rating, Pigweed), 75%. The pest or weed control at 31 g/ha was determined as 90% in the assay on lambsquarters (31 g ai/ha, scale 0-100, read-out: Plant response rating, Lambsquarters); 65% in the assay on chickweed (31 g ai/ha, scale 0 to 100 (0 no effect, 100 complete control), read-out: Plant response rating, Chickweed); 75% in the assay with field violet (31 g ai/ha); 70% in the assay on kochia (31 g ai/ha, scale 0 to 100 (0 no effect, 100 complete control), read-out: Plant response rating, Kochia); 95% with pigweed (31 g ai/ha, scale 0 to 100 (0 no effect, 100 complete control), read-out: Plant response rating, Pigweed). The pest or weed control at 62 g/ha was determined as 100% in the assay on lambsquarters (62 g ai/ha, scale 0-100, read-out: Plant response rating, Lambsquarters); 70% with chickweed (62 g ai/ha, scale 0 to 100 (0 no effect, 100 complete control), read-out: Plant response rating, Chickweed); 70% in the assay on field violet (62 g ai/ha); 90% in the assay on kochia (62 g ai/ha, scale 0 to 100 (0 no effect, 100 complete control), read-out: Plant response rating, Kochia); 95% in the assay on pigweed (62 g ai/ha, scale 0 to 100 (0 no effect, 100 complete control), read-out: Plant response rating, Pigweed). Also, the pest or weed control at 125 g/ha in the assay on lambsquarters (125 g ai/ha, scale 0-100, read-out: Plant response rating, Lambsquarters) amounted to 100%; in the assay with chickweed (125 g ai/ha, scale 0 to 100 (0 no effect, 100 complete control), read-out: Plant response rating, Chickweed), 80%; in the assay on field violet (125 g ai/ha), 85%; with kochia (125 g ai/ha, scale 0 to 100 (0 no effect, 100 complete control), read-out: Plant response rating, Kochia) it was 95%; in the assay on pigweed (125 g ai/ha, scale 0 to 100 (0 no effect, 100 complete control), read-out: Plant response rating, Pigweed), 95%. In addition, in the assay on oilseed rape (16 g ai/ha, scale 0-100, read-out: Plant response rating, Oilseed Rape), the plant injury at 16 g/ha stood at 40%. Moreover, in the assay on oilseed rape (31 g ai/ha, scale 0 to 100 (0 no effect, 100 complete control), read-out: Plant response rating, Oilseed Rape), the plant injury at 31 g/ha came out at 55%. Moreover, the plant injury at 62 g/ha in the assay with oilseed rape (62 g ai/ha, scale 0 to 100 (0 no effect, 100 complete control), read-out: Plant response rating, Oilseed Rape) amounted to 65%. The plant injury at 125 g/ha in the assay with oilseed rape (125 g ai/ha, scale 0 to 100 (0 no effect, 100 complete control), read-out: Plant response rating, Oilseed Rape) came out at 75%. For the same compound, the “Plant response rating, Ragweed” value turned out to be 30 in the assay on ragweed [2] (16 g ai/ha); 30 with ragweed [2] (31 g ai/ha); 30 in the assay with ragweed [2] (62 g ai/ha); 70 in the assay on ragweed [2] (125 g ai/ha); 100 in the assay on ragweed [2] (250 g ai/ha). Also, the “Plant response rating, Leafy Spurge” value was 100 in the assay with leafy spurge (16 g ai/ha); 98 in the assay with leafy spurge (31 g ai/ha); 100 with leafy spurge (62 g ai/ha); 100 with leafy spurge (125 g ai/ha); 100 in the assay on leafy spurge (250 g ai/ha).
